Data on eleven compounds can be found in patent US8785442B2, “Compound as antagonist of lysophosphatidic acid receptor, composition, and use thereof” (Curegenix, Inc., priority 2011, dated 2014).

Each structure is given as a SMILES string.

T1 sequence (Q92633 whole entry): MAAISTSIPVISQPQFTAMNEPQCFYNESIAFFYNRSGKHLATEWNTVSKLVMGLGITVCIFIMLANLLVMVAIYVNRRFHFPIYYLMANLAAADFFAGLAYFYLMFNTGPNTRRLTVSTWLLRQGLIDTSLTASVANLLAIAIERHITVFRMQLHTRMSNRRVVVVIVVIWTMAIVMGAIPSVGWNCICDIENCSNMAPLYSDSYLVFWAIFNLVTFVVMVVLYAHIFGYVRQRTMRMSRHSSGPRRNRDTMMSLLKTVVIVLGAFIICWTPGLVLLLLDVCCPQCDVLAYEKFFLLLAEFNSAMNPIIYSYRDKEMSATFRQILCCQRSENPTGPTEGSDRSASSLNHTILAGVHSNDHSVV

The first test deals with breast cancer cells.
Test: not given
To be noted: animal models (Boucharaba, 2006); cited from earlier work.
Turning to `Cc1noc(-c2ccc(CSCCC(=O)O)cc2)c1NC(=O)OC(C)c1ccccc1Cl` (stereo not drawn) [Ki16425], the “metastasis of breast cancer cells to bone” value is recorded as “inhibited”.

Another test addresses T1, human LPA1 receptor (Homo sapiens, UniProt Q92633).
T1 construct: The 1.1 kb cDNA encoding the full-length coding region of human LPA1 was subcloned into the pRK5; expressed in transfected cells; host or cells: HEK293 or CHO cells
Description: calcium flux assay (LPA Receptor Assays). The format is cell-based.
Settings: not given
How it is done: A cDNA encoding the human LPA1 receptor was cloned by PCR from cDNA clone obtained from commercial sources. The nucleotide sequence was determined by sequencing and confirmed to be identical to the published human LPA1 sequence (An, 1997). The 1.1 kb cDNA encoding the full-length coding region of human LPA1 was subcloned into the pRK5 […] expression vector. Transfection of the cDNA into HEK293 or CHO cells is performed by using LipofectAmine 2000 (Invitrogen, USA). The full-length cDNA fragments for human LPA2 and LPA3 were obtained by PCR similarly and subcloned into pCDNA3.1 expression vector.
Transfected cells were cultured and subjected to LPA-induced SRE-luciferase reporter gene assay by using generally described methods (An, 1997). Intact HEK293 or CHO cells expressing the recombinant human LPA1 receptor were subjected to a [3H]-LPA ligand binding assay as described (An, 1998).
All compounds presented in the patent have IC50<20 μM in the calcium flux assay.
In general terms: Calcium assays in cells follow changes in intracellular calcium, usually with a dye or a luminescent sensor.
Turning to `Cc1noc(-c2ccc(NC(=O)CCC(=O)O)cc2F)c1NC(=O)O[C@H](C)c1ccccc1Cl` [Compound 50, (R)-4-((4-(4-(((1-(2-chlorophenyl)ethoxy)carbonyl)amino)-3-methylisoxazol-5-yl)-3-fluorophenyl)amino)-4-oxobutanoic acid], the IC50 – broadly, the concentration at which inhibition is half-maximal – came out at 70 nM.
Consider `Cc1noc(-c2ccc3[nH]ncc3c2)c1NC(=O)OC(C)c1ccccc1Cl` (stereo not drawn) [Compound 3, 1-(2-chlorophenyl)ethyl(5-(1H-indazol-5-yl)-3-methylisoxazol-4-yl)carbamate], for which the IC50 was found to be 550 nM.
Turning to `Cc1noc(-c2ccc(NC(=O)CCC(=O)O)cc2)c1NC(=O)OC(C)c1ccccc1Cl` (stereo not drawn) [Compound 12, 4-((4-(4-(((1-(2-chlorophenyl)ethoxy)carbonyl)amino)-3-methylisoxazol-5-yl)phenyl)amino)-4-oxobutanoic acid], the IC50 came out at 70 nM.
On the same count and under the same terms, with `Cc1noc(-c2ccc(NS(C)(=O)=O)cc2)c1NC(=O)O[C@H](C)c1ccccc1Cl` [Compound 19, (R)-1-(2-chlorophenyl)ethyl(3-methyl-5-(4-(methylsulfonamido)phenyl)isoxazol-4-yl)carbamate] the figure was 55 nM; with `Cc1noc(-c2ccc(NC(=O)C3CC3)cc2)c1NC(=O)OC(C)c1ccccc1Cl` (stereo not drawn) [Compound 7, 1-(2-chlorophenyl)ethyl(5-(4-(cyclopropanecarboxamido)phenyl)-3-methylisoxazol-4-yl)carbamate], 1150 nM.
Regarding `Cc1noc(-c2ccc(NC(=O)c3ccccc3)cc2)c1NC(=O)OC(C)c1ccccc1Cl` (stereo not drawn) [Compound 16, 1-(2-chlorophenyl)ethyl(5-(4-benzamidophenyl)-3-methylisoxazol-4-yl)carbamate], the IC50 was 2200 nM.
Same read-out and setting: with `Cc1noc(-c2ccc(NS(C)(=O)=O)cc2)c1NC(=O)OC(C)c1ccc(F)cc1Cl` (stereo not drawn) [Compound 42, 1-(2-chloro-4-fluorophenyl)ethyl(3-methyl-5-(4-(methylsulfonamido)phenyl)isoxazol-4-yl)carbamate] the figure was 60 nM; with `Cc1noc(-c2ccc(NS(C)(=O)=O)cc2)c1NC(=O)OC(C)c1ccccc1Cl` (stereo not drawn) [Compound 1, 1-(2-chlorophenyl)ethyl(3-methyl-5-(4-(methylsulfonamido)phenyl)isoxazol-4-yl)carbamate], 90 nM; with `Cc1noc(-c2ccc(NS(C)(=O)=O)cc2F)c1NC(=O)OC(C)c1ccccc1Cl` (stereo not drawn) [Compound 32, 1-(2-chlorophenyl)ethyl(5-(2-fluoro-4-(methylsulfonamido)phenyl)-3-methylisoxazol-4-yl)carbamate], 70 nM.
Same read-out and setting: to `Cc1noc(-c2ccc(NS(=O)(=O)CCC(=O)O)cc2)c1NC(=O)OC(C)c1ccccc1Cl` (stereo not drawn) [Compound 28, 3-(N-(4-(4-(((1-(2-chlorophenyl)ethoxy)carbonyl)amino)-3-methylisoxazol-5-yl)phenyl)sulfamoyl)propanoic acid] belongs 110 nM.

Another test relates to highly peritoneal metastatic pancreatic cancer cell line.
Test: not given
To be noted: highly peritoneal metastatic pancreatic cancer cell line (Yamada, 2004); cited from earlier work.
For the compound `Cc1noc(-c2ccc(CSCCC(=O)O)cc2)c1NC(=O)OC(C)c1ccccc1Cl` (stereo not drawn) [Ki16425], the “LPA-induced and ascites-induced invasion activity” value is recorded as “blocked”.
